Results published in ChEMBL document CHEMBL4033723, “Succinamide derivatives of melampomagnolide B and their anti-cancer activities” (2017).

How the values were obtained:
Format in all cases: functional
[1] = Induction of apoptosis in human M9-ENL1 cells assessed as cell death after 24 hrs by Annexin V/PI or 7-AAD staining based flow cytometry; settings: M9-ENL1, 24 h, read-out: LC50 (the source's name)
NCI-H522 = test: Growth inhibition of human NCI-H522 cells after 48 hrs by sulforhodamine B assay; settings: NCI-H522, 48 h
CCRF-CEM = test: Growth inhibition of human CCRF-CEM cells after 48 hrs by sulforhodamine B assay
SK-OV-3 = test: Growth inhibition of human SKOV3 cells after 48 hrs by sulforhodamine B assay; settings: SK-OV-3, 48 h
[2] = Growth inhibition of human M9-ENL1 cells after 24 hrs by trypan blue assay; settings: M9-ENL1, 24 h
COLO 205 = test: Growth inhibition of human COLO205 cells after 48 hrs by sulforhodamine B assay; settings: COLO 205, 48 h
MCF7 = test: Growth inhibition of human MCF7 cells after 48 hrs by sulforhodamine B assay; settings: MCF7, 48 h

Row | SMILES | CC50 [1] [µM] | further results
1 | C=C1C(=O)O[C@H]2[C@H]1CC/C(COC(=O)CCC(=O)NCCCCCCNC(=O)CCC(=O)OC/C1=C/CC[C@@]3(C)O[C@H]3[C@H]3OC(=O)C(=C)[C@@H]3CC1)=C\CC[C@@]1(C)O[C@@H]21 | 21 | 
2 | C=C1C(=O)O[C@H]2[C@H]1CC/C(COC(=O)CCC(=O)NCCCN1CCOCC1)=C\CC[C@@]1(C)O[C@@H]21 | 14 | 
3 | C=C1C(=O)O[C@H]2[C@H]1CC/C(COC(=O)CCC(=O)NCCCNC(=O)CCC(=O)OC/C1=C/CC[C@@]3(C)O[C@H]3[C@H]3OC(=O)C(=C)[C@@H]3CC1)=C\CC[C@@]1(C)O[C@@H]21 | 10 | 
4 | C=C1C(=O)O[C@H]2[C@H]1CC/C(COC(=O)CCC(=O)NCCCCCNC(=O)CCC(=O)OC/C1=C/CC[C@@]3(C)O[C@H]3[C@H]3OC(=O)C(=C)[C@@H]3CC1)=C\CC[C@@]1(C)O[C@@H]21 | 19 | 
5 | C=C1C(=O)O[C@H]2[C@H]1CC/C(COC(=O)CCC(=O)Nc1cccc(N)n1)=C\CC[C@@]1(C)O[C@@H]21 | 12 | 
6 | C=C1C(=O)O[C@H]2[C@H]1CC/C(COC(=O)CCC(=O)NCCc1ccccn1)=C\CC[C@@]1(C)O[C@@H]21 | 13.5 | 
7 | C=C1C(=O)O[C@H]2[C@H]1CC/C(COC(=O)CCC(=O)NCCCn1ccnc1)=C\CC[C@@]1(C)O[C@@H]21 | > 20 | 
8 | C=C1C(=O)O[C@H]2[C@H]1CC/C(COC(=O)CCC(=O)NCc1ccc(Cl)nc1)=C\CC[C@@]1(C)O[C@@H]21 | 14 | GI50 (NCI-H522): 1.6 µM; GI50 (CCRF-CEM): 2.2 µM; GI50 (SK-OV-3): 28 µM; GI50 [2]: 6.5 µM; GI50 (COLO 205): 3.3 µM; GI50 (MCF7): 3.2 µM
9 | C=C1C(=O)O[C@H]2[C@H]1CC/C(COC(=O)CCC(=O)Nc1n[nH]c(SC)n1)=C\CC[C@@]1(C)O[C@@H]21 | 13 | 
10 | C=C1C(=O)O[C@H]2[C@H]1CC/C(COC(=O)CCC(=O)NCCCCNC(=O)CCC(=O)OC/C1=C/CC[C@@]3(C)O[C@H]3[C@H]3OC(=O)C(=C)[C@@H]3CC1)=C\CC[C@@]1(C)O[C@@H]21 | 19 | 
11 | C=C1C(=O)O[C@H]2[C@H]1CC/C(COC(=O)CCC(=O)NCCCCCCCNC(=O)CCC(=O)OC/C1=C/CC[C@@]3(C)O[C@H]3[C@H]3OC(=O)C(=C)[C@@H]3CC1)=C\CC[C@@]1(C)O[C@@H]21 | 15 | 
12 | C=C1C(=O)O[C@H]2[C@H]1CC/C(COC(=O)CCC(=O)Nc1nc(N)n[nH]1)=C\CC[C@@]1(C)O[C@@H]21 | 60 | 
13 | C=C1C(=O)O[C@H]2[C@H]1CC/C(COC(=O)CCC(=O)NCCCCCCCCCCNC(=O)CCC(=O)OC/C1=C/CC[C@@]3(C)O[C@H]3[C@H]3OC(=O)C(=C)[C@@H]3CC1)=C\CC[C@@]1(C)O[C@@H]21 | 12 | 
14 | C=C1C(=O)O[C@H]2[C@H]1CC/C(COC(=O)CCC(=O)NCc1ccccn1)=C\CC[C@@]1(C)O[C@@H]21 | 14 | 
15 | C=C1C(=O)O[C@H]2[C@H]1CC/C(COC(=O)CCC(=O)N1CCC(F)(F)CC1)=C\CC[C@@]1(C)O[C@@H]21 | 5.2 | 
16 | C=C1C(=O)O[C@@H]2C3O[C@]3(C)CC/C=C(\C)CC[C@@H]12 (some centres undefined) | 7.5 | 
17 | C=C1C(=O)O[C@H]2[C@H]1CC/C(COC(=O)CCC(=O)NCCN1CCOCC1)=C\CC[C@@]1(C)O[C@@H]21 | 20 | 
18 | C=C1C(=O)O[C@H]2[C@H]1CC/C(COC(=O)CCC(=O)N1CCN(C)CC1)=C\CC[C@@]1(C)O[C@@H]21 | 8.1 | 
